# Test results as given in patent US20130029923A1, “Materials and Methods for Prevention and Treatment of Viral Infections” (priority 2009, published 2013).
# What was measured:
# [1] = system: human influenza viruses H1N1 (A/HK/54/98), H9N2 (A/Quail/HK/G1/97), H3N2 (A/H3N2/1174/99); format: cell-based, human influenza virus
# [2] = system: influenza virus H9N2/G1 (A/Quail/HK/G1/97); format: cell-based, human influenza virus
# [3] = system: influenza virus H9N2/G1 (A/Quail/HK/G1/97); format: cell-based, human influenza virus; remark: listed apart in the source
# [4] = system: influenza M1 protein, H9N2/G1 (A/Quail/HK/G1/97); format: cell-based, human influenza virus
# [5] = system: influenza virus H3N2 (A/H3N2/1174/99); format: cell-based, human influenza virus
# [6] = system: influenza virus H9N2 (A/Quail/HK/G1/97); format: cell-based, human influenza virus
# [7] = system: influenza virus H1N1 (A/HK/54/98), oseltamivir-sensitive strain; format: cell-based, human influenza virus
# prostaglandin E2 (PGE2) = format: cell-based, human
smiles,measurement,setting,value
"C[C@@H]1O[C@@H](OC[C@H]2O[C@@H](OCCc3ccc(O)c(O)c3)[C@H](O)[C@@H](O)[C@@H]2OC(=O)/C=C/c2ccc(O)c(O)c2)[C@H](O)[C@H](O)[C@H]1O [Compound A1, forsythoside A]",anti-influenza virus effects in primary human blood macrophages,[1],possesses anti-influenza virus effects
same,increase of cells expressing viral proteins from 6 h.p.i. to 10 h.p.i.,[2],about 15%
same,percentages of cells expressing viral proteins vs DMSO at 6 h.p.i.,[2],no significant difference
same,"virion budding, ultrastructure",[3],slowed or abnormal budding process
same,M1 protein expression level compared to DMSO,[4],lower
same,relative intensity of M1 (normalized to actin),[4],0.39
same,"relative intensity of M1, DMSO-treated over treated cells",[4],more than four fold
same,suppression of virus replication (TCID50) compared with DMSO-treated cells,[5],~12 fold
same,Cytotoxicity index,MDCK cells,1.02
same,cytotoxicity on MDCK cells,"MDCK cells; 100 ug/ml, 48 hours",does not exhibit significant cytotoxicity
same,suppression of virus replication (TCID50) compared with DMSO-treated cells,[6],~24 fold
same,suppression of virus replication (TCID50) compared with DMSO-treated cells,[7],about 15 fold
"COC(=O)CC1(O)C=CC(=O)C=C1 [Compound D1, jacaranone]",PGE2 levels in H9N2/G1-infected macrophages,prostaglandin E2 (PGE2),suppresses PGE2 levels in a dose-dependent manner
same,PGE2 levels in non-infected macrophages,prostaglandin E2 (PGE2),does not cause any changes in PGE2 levels
"CCOC(=O)C1=C[C@@H](OC(CC)CC)[C@H](NC(C)=O)[C@@H](N)C1 [Tamiflu, oseltamivir, reference compound]",suppression of virus (TCID50) compared with diluent (PBS)-treated cells,[7],more than 30 folds
